According to patent US20040228889A1, “Use of N-arylmethylene ethylenediaminetriacetates, N-arylmethylene iminodiacetated or N,N'-diarylmethylene ethylenediamineacetates as doners of NO” (L'OREAL S.A., priority 2003, published 2004):

Legend:
[1] = target: T1, inducible NO synthase (NOS2) (Homo sapiens, UniProt P35228); assay: screening test of the modulation of induction of NOS2 by normal human keratinocytes (nitrite and nitrate measurement); type: cell-based; conditions: for % inhibition: cytokine-induced normal human keratinocytes, nitrites and nitrates
T1 construct: endogenous in cells; host or cells: normal human keratinocytes (primary culture), induced with interferon-gamma and interleukin 1-beta
Method: The activity of N,N′-bis-(3,4,5-trimethoxybenzyl) ethylenediamine-diacetic acid on the inducible NO synthase was evaluated in the assay described by Heck et al. (J.B.C., vol. 267, No. 30, 21277-21280, 25 Oct. 1992), a screening test of the modulation of induction of NOS2 by normal human keratinocytes. The objective of this test is, briefly, to evaluate the concentration of nitrate and nitrite after stimulation of the NO-synthase 2.
The test is carried out on a culture of normal human keratinocytes, derived from samples taken. The induction of the inducible NO synthase (NOS2) was caused by the addition of a combination of several cytokines to the culture medium. The product tested was applied at three concentrations varying from 10 to 1000 μM.
The product tested was classed in one of the following two categories: inhibitor (I) or donor (D) of NO (nitric oxide) according to its capacity to diminish or increase, respectively, the quantity of nitrites and nitrates produced compared to the control signal […].
The following controls were introduced in the test:
A: positive control (induction of the enzyme): mixtures of interferon-γ(1000 u/ml) and interleukin 1-β (100 u/ml)
In order to determine the activity of the test product the quantity of stable NO reaction products (nitrites and nitrates) is measured with the aid of the “nitric colorimetric assay” kit sold by the Boehringer company under catalogue number 1756.28.
N,N′-bis(3,4,5-trimethoxybenzyl) ethylenediamine-diacetic acid was tested at concentrations of 100 μM, 500 μM and 1000 μM in ethanol.

[2] = test system: normal human keratinocytes; assay: cytotoxicity, % diminution of the signal compared with the control; type: cell-based; conditions: concentration equal to or lower than 500 μM
Text: Moreover, the cytotoxicity was expressed as % diminution of the signal compared with the control. A product was considered not to be very cytotoxic from 0-20%, acceptable up to 40% and not retained for values >40%.

T1 sequence (P35228 whole entry): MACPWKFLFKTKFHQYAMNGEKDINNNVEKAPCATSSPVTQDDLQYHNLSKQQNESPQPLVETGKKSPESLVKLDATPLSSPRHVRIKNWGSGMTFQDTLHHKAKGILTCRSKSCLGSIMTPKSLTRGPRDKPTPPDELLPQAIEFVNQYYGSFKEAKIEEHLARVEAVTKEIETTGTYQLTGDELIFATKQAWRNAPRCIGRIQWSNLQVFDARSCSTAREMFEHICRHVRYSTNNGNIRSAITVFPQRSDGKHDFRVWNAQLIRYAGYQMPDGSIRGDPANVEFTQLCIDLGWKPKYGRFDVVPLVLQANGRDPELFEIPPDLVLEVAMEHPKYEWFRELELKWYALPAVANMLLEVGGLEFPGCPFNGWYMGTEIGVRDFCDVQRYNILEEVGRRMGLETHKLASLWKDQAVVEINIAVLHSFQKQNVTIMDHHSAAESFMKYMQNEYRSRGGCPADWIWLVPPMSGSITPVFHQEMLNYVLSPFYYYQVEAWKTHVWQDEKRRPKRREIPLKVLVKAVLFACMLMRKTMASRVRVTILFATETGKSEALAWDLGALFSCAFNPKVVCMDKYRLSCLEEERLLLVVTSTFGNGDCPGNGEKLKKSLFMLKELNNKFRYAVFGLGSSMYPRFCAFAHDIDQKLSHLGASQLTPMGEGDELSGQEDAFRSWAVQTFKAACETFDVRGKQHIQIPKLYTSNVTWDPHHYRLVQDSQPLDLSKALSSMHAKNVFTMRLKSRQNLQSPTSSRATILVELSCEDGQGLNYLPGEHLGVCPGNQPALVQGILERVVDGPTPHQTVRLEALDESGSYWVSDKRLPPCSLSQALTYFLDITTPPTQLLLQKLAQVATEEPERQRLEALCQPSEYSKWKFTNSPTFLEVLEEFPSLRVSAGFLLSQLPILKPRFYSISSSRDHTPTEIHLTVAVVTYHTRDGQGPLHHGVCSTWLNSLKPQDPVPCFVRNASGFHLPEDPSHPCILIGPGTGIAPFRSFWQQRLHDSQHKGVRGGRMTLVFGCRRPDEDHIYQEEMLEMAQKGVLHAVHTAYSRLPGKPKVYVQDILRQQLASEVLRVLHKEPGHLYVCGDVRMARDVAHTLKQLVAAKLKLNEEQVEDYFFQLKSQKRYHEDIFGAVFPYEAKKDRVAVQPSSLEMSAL

classification as inhibitor (I) or donor (D) of NO ([1]; quantity of nitrites and nitrates produced compared to the control signal): NO donor effect | % inhibition ([1]; test product 100 μM in ethanol): 29% | % inhibition ([1]; test product 500 μM in ethanol): 70% | % inhibition ([1]; test product 1000 μM in ethanol): 84%
SMILES: COc1cc(CN(CCN(CC(=O)O)Cc2cc(OC)c(OC)c(OC)c2)CC(=O)O)cc(OC)c1OC [N,N′-bis-(3,4,5-trimethoxybenzyl) ethylenediamine-diacetic acid]
cytotoxicity [2]: not toxic
